In patent US20120208782A1, “Modulation of Growth of Bifidobacteria Using a Combination of Oligosaccharides Found in Human Milk” (Wyeth LLC, priority 2011, published 2012):

Columns and labels:
[1] = system: Bifidobacterium Infantis ATCC 15697; assay: Growth of Bifidobacterium infantis in RCM without glucose, with or without test ingredient (optical density at 595 nm, 30 hours); type: cell-based; details: for growth in wells containing the test ingredient versus control medium: optical density 595 nm; for effect on the growth of Bifidobacterium infantis (summary statement): summary in the description
Description: (§1) Reinforced Clostridia Medium (RCM) was used for cultivating the bifidobacteria. RCM without glucose was used as a control medium. RCM is a well-known medium for cultivating and enumerating anaerobes, which was first formulated by Hirsch and Grinstead, J. Dairy Res., 21:101 (1954). The test ingredients were 2′-fucosyllactose, 6′-sialyllactose and 3′-sialyllactose dissolved in the control medium at the following concentrations: 1 mg/ml 2′-fucosyllactose; 1 mg/ml 6′-sialyllactose; and, 2 mg/ml 3′-sialyllactose. The bifidobacteria were separately grown overnight anaerobically in RCM, and were then measured and diluted to an optical density of 0.1 as measured by absorbance spectroscopy at 595 nm, and were then further diluted ten-fold to make a working stock. For each test, 50 μl of working stock was added to each well of a 96 well plate containing either 200 μl of control medium (48 wells) or 200 μl test ingredient solution (48 wells). The plate was grown anaerobically for 30 hours and optical density was read at abs 595 nm every 15 minutes. The values for like wells were averaged and plotted over time (FIGS. 1, 3, and 5-7), and the area under the curve (AUC) was calculated over the 30-hour period (FIGS. 2 and 4).

[2] = system: Bifidobacterium Breve ATCC 15700; assay: Growth of Bifidobacterium breve in RCM without glucose, with or without test ingredient (optical density at 595 nm, 30 hours); type: cell-based
Description: as §1

## CC(=O)N[C@H]1[C@H]([C@H](O)[C@H](O)CO)O[C@@](O[C@H]2[C@@H](O)[C@@H](CO)O[C@@H](O[C@H]3[C@H](O)[C@@H](O)C(O)O[C@@H]3CO)[C@@H]2O)(C(=O)O)C[C@@H]1O (stereo partly drawn) [3′-sialyllactose]
[1]; 2 mg/ml 3′-sialyllactose, after 8 hours, FIG. 7
  growth in wells containing the test ingredient versus control medium: significantly greater
[1]
  effect on the growth of Bifidobacterium infantis (summary statement): stimulates the growth
[2]; 2 mg/ml 3′-sialyllactose, after 6 hours, optical density 595 nm, FIG. 6
  growth in wells containing the test ingredient versus control medium: significantly greater
[2]; summary in the description
  effect on the growth of Bifidobacterium breve (summary statement): stimulates the growth

## CC(=O)N[C@H]1[C@H]([C@H](O)[C@H](O)CO)O[C@@](OC[C@H]2O[C@@H](O[C@H]3[C@H](O)[C@@H](O)[C@H](O)O[C@@H]3CO)[C@H](O)[C@@H](O)[C@H]2O)(C(=O)O)C[C@@H]1O [6′-sialyllactose]
[1]; 1 mg/ml 6′-sialyllactose, after 12 hours, FIG. 5
  growth in wells containing the test ingredient versus control medium: significantly greater
[1]
  effect on the growth of Bifidobacterium infantis (summary statement): stimulates the growth
